# Article PMC5607274, “An iterative compound screening contest method for identifying target protein inhibitors using the tyrosine-protein kinase Yes” (Scientific Reports, 2017)
# Target: T1, human recombinant Yes [a.a. 2–543 (end)] (Homo sapiens, UniProt P07947)
# T1 construct: human recombinant Yes [a.a; 2–543 (end)]; purchased BPS Bioscience 40488
# Assay: ADP-Glo kinase assay, inhibition rates of Yes phosphorylation activity (first and second screening)
# Type: biochemical
# Settings: first screening; mean of n = 4 wells; 10 μmol L−1 compound
# Outline: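 Hits from a first pass were rescreened after re-dissolution from fresh powder. The first pass reported the mean inhibition rate of quadruplicate wells per compound. Activity was that of recombinant human Yes [a.a. 2–543] kinase, read out with the ADP-Glo ADP-detection method.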
# T1 sequence (P07947 2-543): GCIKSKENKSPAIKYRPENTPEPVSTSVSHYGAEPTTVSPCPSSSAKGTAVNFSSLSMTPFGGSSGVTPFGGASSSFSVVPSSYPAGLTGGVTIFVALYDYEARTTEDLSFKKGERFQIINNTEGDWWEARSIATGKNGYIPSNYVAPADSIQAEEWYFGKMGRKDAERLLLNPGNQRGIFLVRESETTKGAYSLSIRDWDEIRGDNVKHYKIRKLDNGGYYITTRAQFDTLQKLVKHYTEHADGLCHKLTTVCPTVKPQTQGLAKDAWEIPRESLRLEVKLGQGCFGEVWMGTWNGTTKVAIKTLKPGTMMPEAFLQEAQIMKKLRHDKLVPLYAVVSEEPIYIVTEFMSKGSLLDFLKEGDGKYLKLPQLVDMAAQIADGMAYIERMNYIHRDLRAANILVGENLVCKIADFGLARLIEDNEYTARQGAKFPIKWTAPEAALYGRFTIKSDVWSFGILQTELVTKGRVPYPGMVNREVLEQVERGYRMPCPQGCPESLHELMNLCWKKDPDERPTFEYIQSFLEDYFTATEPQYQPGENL
row,Structure (SMILES),First screening IR (inhibition rate) [%]
1,COc1ccc(C(N)=O)c(OCc2cc(C)cc(C)c2)c1 [Compound Z165885974],4
2,O=C(CCc1ccc2ccccc2n1)OCCOc1ccc(S(=O)(=O)N2CCOCC2)cc1 [Compound Z166077876],-20
3,CNc1snc(C)c1C(=O)OCc1csc(-c2ccc(F)cc2)n1 [Compound Z166256344],-7
4,Cc1cc(C)cc(C(=O)N(c2cc(C)cc(C)c2)C2C=CS(=O)(=O)C2)c1 (centres unmarked) [Compound Z166605882],34
5,CC1CCC(NS(=O)(=O)c2ccc(N3CCCC(c4nnc5ccccn45)C3)c([N+](=O)[O-])c2)CC1 (centres unmarked) [Compound Z166704886],5
6,CCN(CC)S(=O)(=O)c1ccc(N2CCc3c(sc(N)c3C#N)C2)c([N+](=O)[O-])c1 [Compound Z166707558],1
7,O=C(CCc1ccc(S(=O)(=O)N2CCCC2)cc1)NCC(c1ccccc1Cl)N1CCCC1 (centres unmarked) [Compound Z166811416],-3
8,COc1cc(C(=O)Nc2ccc3c(c2)NC(=O)C(C)O3)cc2c1OC(C)C2 (centres unmarked) [Compound Z167364352],6
9,Cc1cccc(OCCCNC(=O)c2ccc3nc[nH]c3c2)c1 [Compound Z168616264],-4
10,Nc1ncnc2sc3c(c12)CCN(C(=O)c1ccc2c(c1)CCC2)C3 [Compound Z168757250],4
11,CS(=O)(=O)c1ccc(N2CCCC2)c(S(C)(=O)=O)c1 [Compound Z168801896],13
12,COc1cc(C)c(Sc2cnc(NC(=O)c3ccc(CCl)cc3)s2)cc1C(=O)N1CCN(C(C)=O)CC1 [Compound Z168829182],64
13,CN(C)c1nc(N)nc(COc2ccc3cc(Br)ccc3c2)n1 [Compound Z168931562],5
14,COc1ccc2ccc(OCc3nc(N)nc(N(C)C)n3)cc2c1 [Compound Z168975100],6
15,CC(C)=CC1C(C(=O)Nc2c(C)cc(C)cc2C)C1(C)C (centres unmarked) [Compound Z169558548],2
16,Cc1cc(C(=O)CCC(=O)Nc2nc3c(s2)CN(C)CC3)c(C)s1 [Compound Z169940730],5
17,O=C1CCCCCN1CCCNC(=O)N1CCN(S(=O)(=O)c2c(Cl)cccc2Cl)CC1 [Compound Z183473124],-3

# Other lines, results leading:
row,First screening IR (inhibition rate) [%],Structure (SMILES)
1,13,O=C(CN1CCN(c2nc(-c3ccccn3)nc3scc(-c4ccccc4)c23)CC1)N1CCCCC1 [Compound Z165261492]
2,9,O=C(CN1CCN(c2nc(-c3cccnc3)nc3scc(-c4ccccc4)c23)CC1)N1CCCCC1 [Compound Z165261498]
3,-4,NC(=O)c1ccc(COC(=O)CCc2ccc3ccccc3n2)c([N+](=O)[O-])c1 [Compound Z166077836]
4,55,NC(=O)CCN(C(=O)CSc1ncc2ccccn12)c1ccccc1 [Compound Z166362686]
5,8,Cl.Oc1c(-c2ccccc2)nc2ccc(Cl)cc2c1-c1ccccc1 [Compound Z166605136]
6,-6,O=C(Cc1coc(-c2ccccc2)n1)Nc1ccc2ccccc2n1 [Compound Z167063860]
7,-28,O=C(NCCCN1CCCCC1)c1cc(-c2ccccc2)nc2c1cnn2Cc1ccncc1 [Compound Z167254296]
8,11,O=C(CCC1NC(=O)NC1=O)Nc1ccc(Oc2ccccc2Cl)cc1 (centres unmarked) [Compound Z168726218]
9,3,O=C(Nc1nc2ccccc2[nH]1)c1cc(-c2ccccc2)n[nH]1 [Compound Z184538526]
10,-12,O=C(NCC1COc2ccccc2O1)c1cccc(OCc2cn3ccccc3n2)c1 (centres unmarked) [Compound Z185334464]
11,30,Cn1ccnc1C(Nc1cnn(Cc2ccccc2)c(=O)c1Cl)c1ccccc1 (centres unmarked) [Compound Z185383718]

# Same assay, conditions: second screening, dissolved from fresh powder; n = 4; 10 μmol L−1 compound
row,Second screening IR (inhibition rate) [%],Structure (SMILES)
1,37,COc1cc(C)c(Sc2cnc(NC(=O)c3ccc(CCl)cc3)s2)cc1C(=O)N1CCN(C(C)=O)CC1 [Compound Z168829182]
